Experimental data: ChEMBL document CHEMBL1152042, “Polyhydroxylated 3-(N-phenyl) carbamoyl-2-iminochromene derivatives as potent inhibitors of tyrosine kinase p60c-src” (Bioorg Med Chem Lett, 1995)

How the values were obtained:
[1] = target: Proto-oncogene tyrosine-protein kinase Src (Homo sapiens, UniProt P12931); assay: Inhibitory activity against p60 c-Src tyrosine kinase
[2] = target: Tyrosine-protein kinase Lck (Homo sapiens, UniProt P06239); assay: Inhibitory activity against p56 Lck tyrosine kinase
[3] = target: Tyrosine-protein kinase Fyn (Homo sapiens, UniProt P06241); assay: Inhibitory activity against p55 Fyn tyrosine kinase
[4] = target: Tyrosine-protein kinase Lyn (Homo sapiens, UniProt P07948); assay: Inhibitory activity against p56 Lyn tyrosine kinase
Tyrosine-protein kinase Lyn, sequence (P07948 whole entry): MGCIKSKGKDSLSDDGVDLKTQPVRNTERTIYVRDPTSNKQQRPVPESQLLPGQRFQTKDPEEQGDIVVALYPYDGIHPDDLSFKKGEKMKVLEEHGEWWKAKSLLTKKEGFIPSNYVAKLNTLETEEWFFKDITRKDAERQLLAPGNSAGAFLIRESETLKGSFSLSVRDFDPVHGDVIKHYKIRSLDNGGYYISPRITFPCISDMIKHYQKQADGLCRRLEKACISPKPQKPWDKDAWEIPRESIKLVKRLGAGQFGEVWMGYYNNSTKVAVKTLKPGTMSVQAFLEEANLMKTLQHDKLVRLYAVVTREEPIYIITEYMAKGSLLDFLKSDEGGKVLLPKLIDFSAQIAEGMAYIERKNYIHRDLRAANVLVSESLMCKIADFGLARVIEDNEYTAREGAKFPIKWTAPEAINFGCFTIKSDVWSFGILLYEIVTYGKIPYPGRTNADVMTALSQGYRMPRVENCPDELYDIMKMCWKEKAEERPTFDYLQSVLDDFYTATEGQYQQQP

Tyrosine-protein kinase Lck, sequence (P06239 whole entry): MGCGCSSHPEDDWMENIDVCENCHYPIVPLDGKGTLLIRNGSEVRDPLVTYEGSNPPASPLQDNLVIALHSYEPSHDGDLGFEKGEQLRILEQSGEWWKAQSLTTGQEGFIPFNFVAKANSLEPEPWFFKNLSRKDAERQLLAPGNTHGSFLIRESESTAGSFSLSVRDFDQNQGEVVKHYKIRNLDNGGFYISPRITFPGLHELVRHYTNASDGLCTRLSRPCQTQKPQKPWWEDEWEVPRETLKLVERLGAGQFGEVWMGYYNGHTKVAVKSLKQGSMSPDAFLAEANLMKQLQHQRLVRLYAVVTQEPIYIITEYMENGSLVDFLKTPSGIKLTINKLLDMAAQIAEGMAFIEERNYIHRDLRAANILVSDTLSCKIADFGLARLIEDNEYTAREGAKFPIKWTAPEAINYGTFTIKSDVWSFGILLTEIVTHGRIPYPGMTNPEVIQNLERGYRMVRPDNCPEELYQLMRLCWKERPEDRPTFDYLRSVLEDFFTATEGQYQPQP
Proto-oncogene tyrosine-protein kinase Src, sequence (P12931 2-536 limits assumed): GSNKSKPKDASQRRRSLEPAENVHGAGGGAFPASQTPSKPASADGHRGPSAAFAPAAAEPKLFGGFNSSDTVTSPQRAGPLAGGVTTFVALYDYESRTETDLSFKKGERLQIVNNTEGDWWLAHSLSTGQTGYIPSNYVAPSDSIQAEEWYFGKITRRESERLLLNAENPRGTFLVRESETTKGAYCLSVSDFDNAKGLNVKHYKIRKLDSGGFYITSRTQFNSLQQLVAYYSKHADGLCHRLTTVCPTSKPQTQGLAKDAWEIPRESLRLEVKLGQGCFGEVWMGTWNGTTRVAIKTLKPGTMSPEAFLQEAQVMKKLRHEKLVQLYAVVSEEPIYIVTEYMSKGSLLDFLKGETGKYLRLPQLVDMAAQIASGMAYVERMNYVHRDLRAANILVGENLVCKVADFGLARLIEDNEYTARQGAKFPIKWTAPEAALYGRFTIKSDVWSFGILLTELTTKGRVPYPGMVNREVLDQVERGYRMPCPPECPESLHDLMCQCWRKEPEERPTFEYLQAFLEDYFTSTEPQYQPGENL
Tyrosine-protein kinase Fyn, sequence (P06241 whole entry): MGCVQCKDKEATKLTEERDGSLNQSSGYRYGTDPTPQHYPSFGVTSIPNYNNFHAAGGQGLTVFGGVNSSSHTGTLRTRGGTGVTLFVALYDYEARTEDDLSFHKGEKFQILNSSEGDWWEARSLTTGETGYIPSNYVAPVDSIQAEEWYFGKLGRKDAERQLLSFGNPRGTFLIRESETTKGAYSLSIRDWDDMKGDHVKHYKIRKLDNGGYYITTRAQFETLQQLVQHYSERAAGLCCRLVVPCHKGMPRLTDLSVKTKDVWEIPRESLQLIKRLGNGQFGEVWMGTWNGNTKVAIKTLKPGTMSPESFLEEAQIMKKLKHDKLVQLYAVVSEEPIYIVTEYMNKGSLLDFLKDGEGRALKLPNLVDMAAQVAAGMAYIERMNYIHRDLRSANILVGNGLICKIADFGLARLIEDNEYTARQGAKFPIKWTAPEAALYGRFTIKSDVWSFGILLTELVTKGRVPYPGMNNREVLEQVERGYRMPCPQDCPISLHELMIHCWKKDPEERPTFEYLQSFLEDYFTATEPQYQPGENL

Row | IC50 [1] | IC50 [2] | IC50 [3] | IC50 [4] | Structure (SMILES)
1 | > 67.5 µM | > 67.5 µM | > 67.5 µM | > 67.5 µM | N=c1oc2c(O)c(O)ccc2cc1C(=O)Nc1ccccc1
2 | > 71.4 µM |  |  |  | N=c1oc2ccccc2cc1C(=O)Nc1ccc(O)cc1
3 |  |  | > 61.3 µM | > 61.3 µM | N=c1oc2c(O)c(O)ccc2cc1C(=O)Nc1ccccc1CO
4 |  |  |  | > 16 µM | N=c1oc2cc(O)cc(O)c2cc1C(=O)Nc1ccccc1O
5 | > 33.8 µM |  | > 67.5 µM | > 67.5 µM | N=c1oc2c(O)cccc2cc1C(=O)Nc1ccccc1O
6 | > 71.4 µM |  |  |  | N=c1oc2ccccc2cc1C(=O)Nc1ccccc1O
7 |  |  | > 64 µM | > 64 µM | N=c1oc2c(O)c(O)ccc2cc1C(=O)Nc1ccccc1O

More lines, now with the values behind:

Row | Structure (SMILES) | IC50 [1] | IC50 [2] | IC50 [3] | IC50 [4]
8 | N=c1oc2c(O)c(O)ccc2cc1C(=O)Nc1cccc(O)c1 |  |  | > 64 µM | 
9 | N=c1oc2ccc(O)cc2cc1C(=O)Nc1ccc(O)cc1 |  | > 33.8 µM |  | 
10 | N=c1oc2c(O)c(O)ccc2cc1C(=O)Nc1ccc(O)cc1 |  |  | > 64 µM | > 64 µM
11 | N=c1oc2c(O)cccc2cc1C(=O)Nc1cccc(CO)c1 |  |  | 9.67 µM | 64.5 µM
12 | N=c1oc2cc(O)ccc2cc1C(=O)Nc1cccc(O)c1 |  | > 33.8 µM |  | 
13 | N=c1oc2c(O)cccc2cc1C(=O)Nc1cccc(O)c1 |  |  |  | < 33.8 µM
14 | COc1ccc2cc(C(=O)Nc3ccc(O)cc3)c(=N)oc2c1 | > 32.2 µM | > 32.2 µM |  | 
15 | N=c1oc2c(O)c(O)ccc2cc1C(=O)Nc1cccc(CO)c1 |  | > 61.3 µM | > 61.3 µM | 
16 | N=c1oc2ccc(O)cc2cc1C(=O)Nc1cccc(O)c1 |  | > 33.8 µM |  | 
17 | N=c1oc2c(O)cccc2cc1C(=O)Nc1ccc(O)cc1 |  |  | > 67.5 µM | 
18 | N=c1oc2cc(O)ccc2cc1C(=O)Nc1ccc(O)cc1 |  | > 33.8 µM |  | 
